According to US8852554B2, “Radiolabelled PDE10 ligands” (Janssen Pharmaceutica NV, priority 2009, dated 2014):
pIC50: −log10 of the molar value. Where a name gives a salt, the structure may show the parent alone.

Experiments:
[1] = biological target: T1, Rat recombinant PDE10A (rPDE10A) (Rattus norvegicus, UniProt Q9QYJ6); experiment: rat PDE10A2-cAMP inhibition, in vitro SPA assay; type: biochemical; conditions: 60 nM cAMP substrate
T1 construct: made in house; host or cells: Sf9 insect cells (baculovirus)
T1 sequence (Q9QYJ6 1-794): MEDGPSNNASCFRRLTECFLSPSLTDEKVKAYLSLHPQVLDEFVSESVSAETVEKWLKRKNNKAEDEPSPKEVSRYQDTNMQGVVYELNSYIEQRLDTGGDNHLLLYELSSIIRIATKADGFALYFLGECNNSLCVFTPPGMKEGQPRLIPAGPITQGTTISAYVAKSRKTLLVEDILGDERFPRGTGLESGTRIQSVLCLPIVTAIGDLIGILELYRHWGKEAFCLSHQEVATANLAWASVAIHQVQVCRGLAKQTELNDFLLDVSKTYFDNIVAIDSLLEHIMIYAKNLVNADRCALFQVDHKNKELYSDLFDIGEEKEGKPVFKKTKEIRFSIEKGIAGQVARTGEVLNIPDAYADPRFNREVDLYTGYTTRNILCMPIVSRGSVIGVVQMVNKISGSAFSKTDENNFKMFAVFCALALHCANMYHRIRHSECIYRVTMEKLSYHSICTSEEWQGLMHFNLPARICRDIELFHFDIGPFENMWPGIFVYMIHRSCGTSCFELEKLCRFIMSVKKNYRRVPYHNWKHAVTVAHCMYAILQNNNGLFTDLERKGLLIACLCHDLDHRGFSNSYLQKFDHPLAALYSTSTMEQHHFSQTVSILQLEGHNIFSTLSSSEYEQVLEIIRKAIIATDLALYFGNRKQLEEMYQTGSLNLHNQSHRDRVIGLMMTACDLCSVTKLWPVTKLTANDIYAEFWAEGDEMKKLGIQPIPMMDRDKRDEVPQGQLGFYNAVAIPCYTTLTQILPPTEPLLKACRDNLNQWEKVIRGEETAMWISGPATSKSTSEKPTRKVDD
Method: Rat recombinant PDE10A (rPDE10A) was expressed in Sf9 cells using a recombinant rPDE10A baculovirus construct. Cells were harvested after 48 h of infection and the rPDE10A protein was purified by metal chelate chromatography on Ni-sepharose 6FF. Tested compounds were dissolved and diluted in 100% DMSO to a concentration 100 fold of the final concentration in the assay. Compound dilutions (0.4 μl) were added in 384 well plates to 20 μl of incubation buffer (50 mM Tris pH 7.8, 8.3 mM MgCl2, 1.7 mM EGTA). 10 μl of rPDE10A enzyme in incubation buffer was added and the reaction was started by addition of 10 μl substrate to a final concentration of 60 nM cAMP and 0.008 μCi 3H-cAMP. The reaction was incubated for 60 minutes at room temperature. […] After sedimentation of the beads during 30 minutes, the radioactivity was measured in a Perkin Elmer Topcount scintillation counter and results were expressed as cpm. For blanc values the enzyme was omitted from the reaction and replaced by incubation buffer. Control values were obtained by addition of a final concentration of 1% DMSO instead of compound.

PDE10A = biological target: T2, PDE10A (Rattus norvegicus, UniProt Q9QYJ6); experiment: MicroPET imaging studies; type: in vivo, male Wistar rats; conditions: simplified reference tissue model, cerebellum as reference
T2 construct: from tissue; host or cells: brain (striatum) of living male Wistar rats, in vivo microPET
T2 sequence (Q9QYJ6 1-794): T1 sequence (Q9QYJ6 1-794)
Method: Imaging experiments were performed on a Focus™ 220 microPET scanner (Concorde Microsystems, Knoxville, Tenn., USA) using male Wistar rats with body weight varying between 300 and 600 g. […] Dynamic scans of 120 min were acquired in list mode. After reconstruction of the images, they were semi-automatically co-registered with a [^11C]raclopride template of the rat brain, and volumes of interest (VOIs) were generated for different anatomical brain structures (striatum, cerebral cortex and cerebellum) from which time-activity curves (TAC) were constructed for each individual image, using PMOD software (PMOD Technologies Ltd.). Normalization for body weight of the animal and injected dose was done. The radioactivity concentration in the different brain regions was expressed as SUV (standardized uptake value) as a function of time in seconds post injection of the radiotracer. The parametric binding potential (BP) values were calculated for all acquired images by using a simplified reference tissue model where the TAC of the cerebellum was used as input TAC for non-specific binding, using the same software (PMOD).
The radioactivity concentration in the different brain regions was expressed as SUV value as a function of time p.i. of the radiotracer by normalization for body weight of the animal and injected dose.

Compound	melting point	pIC50 [1]	BP (binding potential) at baseline (PDE10A)
COc1cccc(COc2ccc(-c3nn(CCF)cc3-c3ccncc3)cc2)n1 (as salt: succinate) [Compound B24, 2-[[4-[1-(2-fluoroethyl)-4-(4-pyridinyl)-1H-pyrazol-3-yl]phenoxy]methyl]-6-methoxy-pyridine.succinate]	113.25 °C	–	–
CCOc1cccc(COc2ccc(-c3nn(CCF)cc3-c3ccncc3)cc2)n1 (as salt: succinate) [Compound B25, 2-ethoxy-6-[[4-[1-(2-fluoroethyl)-4-(4-pyridinyl)-1H-pyrazol-3-yl]phenoxy]methyl]-pyridine.succinate]	119.65 °C	–	–
COc1ccc(COc2ccc(-c3nn(CC(F)(F)F)cc3-c3ccncc3)cc2)nc1 [Compound B5, 5-methoxy-2-[[4-[4-(4-pyridinyl)-1-(2,2,2-trifluoroethyl)-1H-pyrazol-3-yl]phenoxy]methyl]-pyridine]	136.3 °C	8.29	–
FCCCn1cc(-c2ccncc2)c(-c2ccc(OCc3ccc(OCCF)cn3)cc2)n1 [Compound B15, 5-(2-fluoroethoxy)-2-[[4-[1-(3-fluoropropyl)-4-(4-pyridinyl)-1H-pyrazol-3-yl]phenoxy]methyl]-pyridine]	206.8 °C	6.60	–
FCCn1cc(-c2ccncc2)c(-c2ccc(OCc3ccc(C(F)(F)F)cn3)cc2)n1 [Compound B22, 2-[[4-[1-(2-fluoroethyl)-4-(4-pyridinyl)-1H-pyrazol-3-yl]phenoxy]methyl]-5-(trifluoromethyl)-pyridine]	133.23 °C	7.04	–
Cc1cnc(COc2ccc(-c3nn(CC[18F])cc3-c3ccncc3)cc2)c(C)c1 [[^18F]B-3]	–	–	4.1

The remaining lines, values ahead:

melting point	pIC50 [1]	BP (binding potential) at baseline (PDE10A)	Compound
197.08 °C	–	–	Cc1cnc(COc2ccc(-c3nn(CCF)cc3-c3ccncc3)cc2)c(C)c1C (as salt: succinate) [Compound B28, 2-[[4-[1-(2-fluoroethyl)-4-(4-pyridinyl)-1H-pyrazol-3-yl]phenoxy]methyl]-3,4,5-trimethyl-pyridine.succinate]
117.52 °C	8.48	–	COc1ccc(COc2ccc(-c3nn(CCF)cc3-c3ccncc3)cc2)nc1 [Compound B4, 2-[[4-[1-(2-fluoroethyl)-4-(4-pyridinyl)-1H-pyrazol-3-yl]phenoxy]methyl]-5-methoxy-pyridine]
147 °C	8.29	–	COc1cccnc1COc1ccc(-c2nn(CC(F)(F)F)cc2-c2ccncc2)cc1 [Compound B9, 3-methoxy-2-[[4-[4-(4-pyridinyl)-1-(2,2,2-trifluoroethyl)-1H-pyrazol-3-yl]phenoxy]methyl]-pyridine]
165.9 °C	7.88	–	COc1cccnc1COc1ccc(-c2nn(CCCF)cc2-c2ccncc2)cc1 [Compound B12, 2-[[4-[1-(3-fluoropropyl)-4-(4-pyridinyl)-1H-pyrazol-3-yl]phenoxy]methyl]-3-methoxy-pyridine]
212.7 °C	7.00	–	FCCOc1ccc(COc2ccc(-c3nn(CCF)cc3-c3ccncc3)cc2)nc1 [Compound B19, 5-(2-fluoroethoxy)-2-[[4-[1-(2-fluoroethyl)-4-(4-pyridinyl)-1H-pyrazol-3-yl]phenoxy]methyl]-pyridine]
125.8 °C	8.02	–	FCCn1cc(-c2ccncc2)c(-c2ccc(OCc3ccc(Br)cn3)cc2)n1 [Compound B20, 5-bromo-2-[[4-[1-(2-fluoroethyl)-4-(4-pyridinyl)-1H-pyrazol-3-yl]phenoxy]methyl]-pyridine]
148.7 °C	7.48	–	N#Cc1cccc(COc2ccc(-c3nn(CCF)cc3-c3ccncc3)cc2)n1 [Compound B26, 6-[[4-[1-(2-fluoroethyl)-4-(4-pyridinyl)-1H-pyrazol-3-yl]phenoxy]methyl]-2-pyridinecarbonitrile]
119.2 °C	7.55	–	COc1ccc(Br)c(COc2ccc(-c3nn(CCF)cc3-c3ccncc3)cc2)n1 [Compound B27, 3-bromo-2-[[4-[1-(2-fluoroethyl)-4-(4-pyridinyl)-1H-pyrazol-3-yl]phenoxy]methyl]-6-methoxy-pyridine]
